Literature values, collected in patent US6235494A, “Substrates for assessing mannan-binding protein-associated serine protease activity and methods using the substrates” (The Scripps Research Institute, priority 1999, dated 2001).

Legend:
[1] = system: C4a
[2] = system: coagulation pathway
[3] = system: classical pathway
[4] = system: MASP
[5] = system: alternative pathway
[6] = system: C1r
[7] = system: kallikrein (plasma and pancreatic)
[8] = system: classical pathway; remark: listed apart in the source
[9] = system: Factor B
[10] = system: complement activation (C3a and C4a); conditions: normal individuals
[11] = system: Factor Xa
[12] = system: Hageman factor
[13] = system: alternative pathway; remark: listed apart in the source
[14] = system: C1s
[15] = system: Factor D
[16] = system: plasmin
[17] = system: thrombin

SMILES | C4a generated in whole blood ([1]; benzamidine added, before EDTA) | block of the coagulation pathway [2] | block of the classical pathway [3] | inhibition of MASP activity [4] | block of the alternative pathway [5] | complement proteinase target C1r [6] | inhibition of kallikrein (plasma and pancreatic) [7] | inhibition of complement-mediated hemolysis by the classical pathway [8] | complement proteinase target Factor B [9] | stabilization of freshly drawn blood samples [10] | MASP activity ([4]; in EDTA) | effective toward Factor Xa [11] | effective toward Hageman factor [12] | inhibition of complement-mediated hemolysis by the alternative pathway [13] | complement proteinase target C1s [14] | complement proteinase target Factor D [15] | inhibition of plasmin [16] | inhibition of thrombin [17] | C4a generated upon addition of EDTA ([1]; benzamidine-containing whole blood, EDTA added)
N=C(N)c1ccccc1 [benzamidine] | no C4a generated | blocks | blocks | does not inhibit MASP activity | blocks | – | – | – | – | – | – | – | – | – | – | – | – | – | –
CS(=O)(=O)O.CS(=O)(=O)O.N=C(N)Nc1ccc(C(=O)Oc2ccc3cc(C(=N)N)ccc3c2)cc1 [Futhan, 6-amidino-2-naphthyl p-guanidinobenzoate dimethanesulfonate] | – | – | – | inhibits MASP | – | complement proteinase targets | inhibits | inhibits | complement proteinase targets | effectively stabilizes freshly drawn blood samples | no MASP activity is observed | sub-micromolar level | sub-micromolar level | inhibits | complement proteinase targets | complement proteinase targets | inhibits | inhibits | –
O=C(O)CN(CCN(CC(=O)O)CC(=O)O)CC(=O)O [EDTA, ethylened laminetetraacetic acid] | – | – | – | – | – | – | – | – | – | – | – | – | – | – | – | – | – | – | high levels of C4a are generated
